Tests used:
[1] = target: Dual specificity tyrosine-phosphorylation-regulated kinase 1A (Rattus norvegicus) (UniProt Q63470); assay: Inhibition of recombinant rat DYRK1A kinase domain (1 to 499 residues) expressed in bacteria assessed as enzyme residual activity using KKISGRLSPIMTEQ as substrate at 10 uM incubated for 30 mins in presence of ATP by ADP-Glo kinase assay
[2] = target: T1, Serine/threonine-protein kinase haspin (Homo sapiens, UniProt Q8TF76); assay: Inhibition of recombinant human Haspin kinase domain (470 to 798 residues) expressed in bacteria using histone H3 (1 to 21) peptide as substrate incubated for 30 mins in presence of ATP by ADP-Glo kinase assay
T1 sequence (Q8TF76 whole entry): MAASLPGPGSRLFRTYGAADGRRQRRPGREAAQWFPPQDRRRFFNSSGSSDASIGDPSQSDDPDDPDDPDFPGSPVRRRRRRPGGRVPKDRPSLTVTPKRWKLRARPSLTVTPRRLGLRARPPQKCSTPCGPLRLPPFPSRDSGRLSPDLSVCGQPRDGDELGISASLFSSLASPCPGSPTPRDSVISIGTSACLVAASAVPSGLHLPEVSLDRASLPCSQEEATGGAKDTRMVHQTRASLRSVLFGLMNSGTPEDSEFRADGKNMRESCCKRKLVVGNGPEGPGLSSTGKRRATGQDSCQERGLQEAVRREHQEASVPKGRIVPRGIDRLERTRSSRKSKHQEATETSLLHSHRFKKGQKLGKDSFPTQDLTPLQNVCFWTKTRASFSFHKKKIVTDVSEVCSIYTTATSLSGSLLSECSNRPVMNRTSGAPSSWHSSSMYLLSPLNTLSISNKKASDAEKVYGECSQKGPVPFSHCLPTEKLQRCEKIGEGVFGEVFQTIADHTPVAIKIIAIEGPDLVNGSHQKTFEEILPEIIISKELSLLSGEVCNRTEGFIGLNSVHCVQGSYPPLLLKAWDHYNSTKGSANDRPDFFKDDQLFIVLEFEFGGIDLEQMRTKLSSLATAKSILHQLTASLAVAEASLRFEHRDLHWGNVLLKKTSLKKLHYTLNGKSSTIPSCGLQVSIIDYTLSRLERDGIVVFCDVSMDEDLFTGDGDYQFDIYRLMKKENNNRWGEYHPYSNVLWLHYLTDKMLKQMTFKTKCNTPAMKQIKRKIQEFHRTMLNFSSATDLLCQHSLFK

[3] = target: T2, Cyclin-dependent kinase 5/CDK5 activator 1 (Homo sapiens) (UniProt Q00535+Q15078); assay: Inhibition of human recombinant CDK5/p25 expressed in bacteria assessed as enzyme residual activity using histone H1 as substrate at 10 uM incubated for 30 mins in presence of ATP by ADP-Glo kinase assay
T2 sequence (Q00535 whole entry, canonical isoform): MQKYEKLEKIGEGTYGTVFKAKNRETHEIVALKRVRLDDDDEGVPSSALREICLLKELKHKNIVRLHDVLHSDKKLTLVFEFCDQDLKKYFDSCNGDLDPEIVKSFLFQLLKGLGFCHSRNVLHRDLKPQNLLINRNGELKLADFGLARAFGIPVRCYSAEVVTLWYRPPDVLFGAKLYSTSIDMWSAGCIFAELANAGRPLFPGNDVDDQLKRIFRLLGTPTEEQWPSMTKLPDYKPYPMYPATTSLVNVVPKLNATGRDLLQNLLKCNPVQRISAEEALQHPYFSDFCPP
T2 sequence (Q15078 99-307 partner limits assumed): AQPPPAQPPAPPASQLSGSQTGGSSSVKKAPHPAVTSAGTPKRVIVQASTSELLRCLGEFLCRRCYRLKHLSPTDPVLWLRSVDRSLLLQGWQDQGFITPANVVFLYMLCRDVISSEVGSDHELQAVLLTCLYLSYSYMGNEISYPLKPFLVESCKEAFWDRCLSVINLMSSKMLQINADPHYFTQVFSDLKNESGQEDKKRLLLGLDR

[4] = target: Casein kinase I isoform epsilon (Homo sapiens) (UniProt P49674); assay: Inhibition of human recombinant CK1 epsilon expressed in baculovirus-infected Sf9 cells assessed as enzyme residual activity using RRKHAAIGSpAYSITA as substrate at 10 uM incubated for 30 mins in presence of ATP by ADP-Glo kinase assay
Sequence of Casein kinase I isoform epsilon (Homo sapiens) (P49674 whole entry, looked up, canonical isoform): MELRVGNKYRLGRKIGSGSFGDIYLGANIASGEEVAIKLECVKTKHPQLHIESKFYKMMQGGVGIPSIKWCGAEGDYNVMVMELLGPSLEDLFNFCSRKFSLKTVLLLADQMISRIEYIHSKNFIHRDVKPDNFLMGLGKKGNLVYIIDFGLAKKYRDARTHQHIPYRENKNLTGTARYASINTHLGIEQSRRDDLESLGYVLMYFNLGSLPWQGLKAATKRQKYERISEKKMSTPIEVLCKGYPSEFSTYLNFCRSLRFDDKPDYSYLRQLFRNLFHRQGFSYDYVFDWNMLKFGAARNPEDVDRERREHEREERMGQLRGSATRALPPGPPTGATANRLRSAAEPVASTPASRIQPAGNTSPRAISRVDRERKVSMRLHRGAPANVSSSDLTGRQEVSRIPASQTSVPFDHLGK

[5] = target: Casein kinase I isoform epsilon (Homo sapiens) (UniProt P49674); assay: Inhibition of human recombinant CK1 epsilon expressed in baculovirus-infected Sf9 cells assessed as enzyme residual activity using RRKHAAIGSpAYSITA as substrate at 1 uM incubated for 30 mins in presence of ATP by ADP-Glo kinase assay
[6] = target: T3, CDK9/cyclin T1 (Homo sapiens) (UniProt O60563+P50750); assay: Inhibition of human recombinant CDK9/cyclin T expressed in baculovirus-infected Sf9 cells assessed as enzyme residual activity using YSPTSPSYSPTSPSYSPTSPSKKKK as substrate at 10 uM incubated for 30 mins in presence of ATP by ADP-Glo kinase assay
[7] = target: Dual specificity protein kinase CLK1 (Mus musculus) (UniProt P22518); assay: Inhibition of recombinant mouse CLK1 expressed in bacteria assessed as enzyme residual activity using GRSRSRSRSRSR as substrate at 10 uM incubated for 30 mins in presence of ATP by ADP-Glo kinase assay
Sequence of Dual specificity protein kinase CLK1 (Mus musculus) (P22518 whole entry, looked up): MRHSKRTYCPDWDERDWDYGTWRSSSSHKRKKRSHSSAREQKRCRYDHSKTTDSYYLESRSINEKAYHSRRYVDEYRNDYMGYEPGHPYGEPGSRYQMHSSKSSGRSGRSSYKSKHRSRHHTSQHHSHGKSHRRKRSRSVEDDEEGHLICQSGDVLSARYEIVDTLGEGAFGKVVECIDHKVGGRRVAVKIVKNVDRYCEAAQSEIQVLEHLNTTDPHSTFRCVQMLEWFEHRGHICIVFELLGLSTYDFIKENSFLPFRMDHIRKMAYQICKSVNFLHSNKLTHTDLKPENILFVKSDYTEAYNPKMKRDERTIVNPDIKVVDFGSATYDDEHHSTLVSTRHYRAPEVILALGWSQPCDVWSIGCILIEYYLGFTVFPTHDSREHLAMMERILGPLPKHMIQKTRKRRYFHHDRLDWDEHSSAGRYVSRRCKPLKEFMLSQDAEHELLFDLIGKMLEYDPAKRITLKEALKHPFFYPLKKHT

[8] = target: Dual specificity protein kinase CLK1 (Mus musculus) (UniProt P22518); assay: Inhibition of recombinant mouse CLK1 expressed in bacteria assessed as enzyme residual activity using GRSRSRSRSRSR as substrate at 1 uM incubated for 30 mins in presence of ATP by ADP-Glo kinase assay
[9] = target: T3, CDK9/cyclin T1 (Homo sapiens); assay: Inhibition of human recombinant CDK9/cyclin T expressed in baculovirus-infected Sf9 cells assessed as enzyme residual activity using YSPTSPSYSPTSPSYSPTSPSKKKK as substrate at 1 uM incubated for 30 mins in presence of ATP by ADP-Glo kinase assay
[10] = target: T2, Cyclin-dependent kinase 5/CDK5 activator 1 (Homo sapiens); assay: Inhibition of human recombinant CDK5/p25 expressed in bacteria assessed as enzyme residual activity using histone H1 as substrate at 1 uM incubated for 30 mins in presence of ATP by ADP-Glo kinase assay
[11] = target: T4, Serine/threonine-protein kinase pim-1 (Homo sapiens, UniProt P11309); assay: Inhibition of human recombinant PIM-1 expressed in bacteria assessed as enzyme residual activity using histone H1 as substrate at 10 uM incubated for 30 mins in presence of ATP by ADP-Glo kinase assay
T4 sequence (P11309 whole entry, looked up, the tested form may be a part): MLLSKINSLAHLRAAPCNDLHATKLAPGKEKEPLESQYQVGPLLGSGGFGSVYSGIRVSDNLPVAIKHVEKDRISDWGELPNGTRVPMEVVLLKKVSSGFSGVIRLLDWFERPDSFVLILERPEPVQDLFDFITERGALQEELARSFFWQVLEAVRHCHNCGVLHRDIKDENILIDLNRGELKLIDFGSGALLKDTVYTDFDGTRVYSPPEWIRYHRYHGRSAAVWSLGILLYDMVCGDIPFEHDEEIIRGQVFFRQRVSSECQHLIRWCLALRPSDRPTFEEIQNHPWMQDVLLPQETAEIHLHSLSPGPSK

[12] = target: Dual specificity tyrosine-phosphorylation-regulated kinase 1A (Rattus norvegicus) (UniProt Q63470); assay: Inhibition of recombinant rat DYRK1A kinase domain (1 to 499 residues) expressed in bacteria assessed as enzyme residual activity using KKISGRLSPIMTEQ as substrate at 1 uM incubated for 30 mins in presence of ATP by ADP-Glo kinase assay
[13] = target: Glycogen synthase kinase-3 beta (Homo sapiens) (UniProt P49841); assay: Inhibition of human recombinant GSK-3 beta expressed in baculovirus-infected Sf9 cells assessed as enzyme residual activity using YRRAAVPPSPSLSRHSSPHQSpEDEEE as substrate at 1 uM incubated for 30 mins in presence of ATP by ADP-Glo kinase assay
Sequence of Glycogen synthase kinase-3 beta (Homo sapiens) (P49841 whole entry, looked up): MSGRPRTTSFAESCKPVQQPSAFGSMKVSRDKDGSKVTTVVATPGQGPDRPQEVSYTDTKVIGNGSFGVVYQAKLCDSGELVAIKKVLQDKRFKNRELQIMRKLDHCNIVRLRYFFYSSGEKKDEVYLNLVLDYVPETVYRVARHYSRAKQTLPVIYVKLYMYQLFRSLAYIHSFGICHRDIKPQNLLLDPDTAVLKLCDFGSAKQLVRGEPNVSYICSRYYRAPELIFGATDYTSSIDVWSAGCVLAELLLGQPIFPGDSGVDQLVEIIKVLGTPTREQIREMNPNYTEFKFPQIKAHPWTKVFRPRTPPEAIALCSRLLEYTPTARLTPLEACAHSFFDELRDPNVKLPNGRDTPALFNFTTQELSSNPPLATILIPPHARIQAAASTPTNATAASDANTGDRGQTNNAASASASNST

[14] = target: T4, Serine/threonine-protein kinase pim-1; assay: Inhibition of human recombinant PIM-1 expressed in bacteria assessed as enzyme residual activity using histone H1 as substrate at 1 uM incubated for 30 mins in presence of ATP by ADP-Glo kinase assay
[15] = target: Glycogen synthase kinase-3 beta (Homo sapiens) (UniProt P49841); assay: Inhibition of human recombinant GSK-3 beta expressed in baculovirus-infected Sf9 cells assessed as enzyme residual activity using YRRAAVPPSPSLSRHSSPHQSpEDEEE as substrate at 10 uM incubated for 30 mins in presence of ATP by ADP-Glo kinase assay

SMILES	Activity [1] [%]	IC50 [2] [nM]	Activity [3] [%]	Activity [4] [%]	Activity [5] [%]	Activity [6] [%]	Activity [7] [%]	Activity [8] [%]	Activity [9] [%]	Activity [10] [%]	Activity [11] [%]	Activity [12] [%]	Activity [13] [%]	Activity [14] [%]	Activity [15] [%]
c1cc2cc3c(-c4cncnc4)c[nH]c3cc2cn1	20	249	72	43	81	43	14	54	79	100	33	51	68	63	59
Clc1c[nH]c2cc3cnccc3cc12	21		68	82	100	25	39	78	62	100	16	61	92	63	82
NCc1c[nH]c2cc3cnccc3cc12	62		94	96	99	58	86	99	93	100	84	77	94	97	80
CCNCc1c[nH]c2cc3cnccc3cc12	63		89	100	100	37	80	94	74		74	80	76	76	80
COc1ncc2cc3cnccc3c([N+](=O)[O-])c2n1	20		80	53		43	8				55				29
Cn1ccc2cc3ccncc3cc21	29	~1000	38	85	92	60	58	92	89	53	35	67	100	67	83
Nc1cc2cc3ccncc3cc2[nH]1	39		99	52	79	27	20	73	74	89	88	100	69	100	64
OCc1c[nH]c2cc3cnccc3cc12	62	819	94	98	100	55	55	96	81		100	77	84	100	81
CN(C)Cc1c[nH]c2cc3cnccc3cc12	67		97	99	100	18	62	91	57	100	67	74	78	66	66
CCN(CC)Cc1c[nH]c2cc3cnccc3cc12	76		100	100	98	51	84	89	86		47	89	79	65	77
c1cc2cc3cc[nH]c3cc2cn1	37		98	90	97	34	67	87	76	100	45	99	100	90	100
c1ccc(-c2c[nH]c3cc4cnccc4cc23)cc1	19	482	73	88	100	63	44	74	83	97	18	53	66	53	77
CNCc1c[nH]c2cc3cnccc3cc12	92		88	98	100	37	74	95	58	93	90		87	89	83
Cn1cc(I)c2cc3ccncc3cc21	14	243	22	72	100	26	22	61	57	95	26	46	81	48	60

— ChEMBL document CHEMBL5550090, “Synthesis and biological evaluation of 1H-pyrrolo[3,2-g]isoquinolines” (Bioorg Med Chem, 2024)
